Test results reported in US6884813B2, “Antimicrobial dihydrothiazine and dihydrothiopyran oxazolidinones” (Pharmacia & Upjohn Company, priority 2002, dated 2005).
≈ marks a conversion by molar mass, not a printed value.

Assays:
SPNE 9912 = experiment: Minimum inhibitory concentration (MIC) by agar dilution; type: cell-based; conditions: Streptococcus pneumoniae, lowest concentration of drug that inhibits visible growth of the organism, strain SPNE 9912, read-out: Antibacterial Activity, Minimum Inhibitory Concentration (MIC μg/mL) SPNE 9912
Excerpt: Compounds of this invention have useful activity against a variety of organisms. The in vitro activity of compounds of this invention can be assessed by standard testing procedures such as the determination of minimum inhibitory concentration (MIC) by agar dilution as described in “Approved Standard. Methods for Dilution Antimicrobial Susceptibility Tests for Bacteria That Grow Aerobically”, 3rd. ed., published 1993 by the National Committee for Clinical Laboratory Standards, Villanova, Pa., USA. Minimum inhibitory concentration (MIC) refers to lowest concentration of drug (μg/mL) that inhibits visible growth of the organism. “- -” refers to the activity data is not available.

Structure (SMILES)	MIC (SPNE 9912)	melting point
O=C1O[C@@H](CNC(=O)C(F)(F)F)CN1c1ccc(C2C=CSCC2)c(F)c1 (stereo partly drawn) [Example 1, N-[[(5S)-3-[4-(3,4-dihydro-2H-thiopyran-4-yl)-3-fluorophenyl]-2-oxo-5-oxazolidinyl]methyl]-2,2,2-trifluoroacetamide]	2 µg/mL (≈ 4.95 µM)	
CC(=O)NC[C@H]1CN(c2ccc(C3C=CSCC3)c(F)c2)C(=O)O1 (stereo partly drawn) [Example 2, N-[[(5S)-3-[4-(3,4-dihydro-2H-thiopyran-4-yl)-3-fluorophenyl]-2-oxo-5-oxazolidinyl]methyl]acetamide]	1 µg/mL (≈ 2.85 µM)	
CC(=S)NC[C@H]1CN(c2ccc(C3C=CSCC3)c(F)c2)C(=O)O1 (stereo partly drawn) [Example 3, N-[[(5S)-3-[4-(3,4-dihydro-2H-thiopyran-4-yl)-3-fluorophenyl]-2-oxo-5-oxazolidinyl]methyl]ethanethioamide]	0.5 µg/mL (≈ 1.36 µM)	
CC(=O)NC[C@H]1CN(c2ccc(C3C=C[S+]([O-])CC3)c(F)c2)C(=O)O1 (stereo partly drawn) [Example 4, N-[[(5S)-3-[4-(3,4-dihydro-1-oxido-2H-thiopyran-4-yl)-3-fluorophenyl]-2-oxo-5-oxazolidinyl]methyl]acetamide]	1 µg/mL (≈ 2.73 µM)	
CC(=O)NC[C@H]1CN(c2ccc(C3C=CS(=O)(=O)CC3)c(F)c2)C(=O)O1 (stereo partly drawn) [Example 5, N-[[(5S)-3-[4-(3,4-Dihydro-1,1-dioxido-2H-thiopyran-4-yl)-3-fluorophenyl]-2-oxo-5-oxazolidinyl]methyl]acetamide]	0.25 µg/mL (≈ 0.654 µM)	
CC(=S)NC[C@H]1CN(c2ccc(C3C=C[S+]([O-])CC3)c(F)c2)C(=O)O1 (stereo partly drawn) [Example 6, N-[[(5S)-3-[4-(3,4-dihydro-1-oxido-2H-thiopyran-4-yl)-3-fluorophenyl]-2-oxo-5-oxazolidinyl]methyl]ethanethioamide]	0.25 µg/mL (≈ 0.654 µM)	
CC(=O)NC[C@H]1CN(c2ccc(N3C=CS(=O)(=O)CC3)c(F)c2)C(=O)O1 [Example 7, N-[[(5S)-3-[4-(2,3-dihydro-1,1-dioxido-4H-1,4-thiazin-4-yl)-3-fluorophenyl]-2-oxo-5-oxazolidinyl]methyl]acetamide]	0.5 µg/mL (≈ 1.3 µM)	193 to 194 °C
CC(=O)NC[C@H]1CN(c2cc(F)c(N3C=CS(=O)(=O)CC3)c(F)c2)C(=O)O1 [Example 8, N-[[(5S)-3-[4-(2,3-dihydro-1,1-dioxido-4H-1,4-thiazin-4-yl)-3,5-difluorophenyl]-2-oxo-5-oxazolidinyl]methyl]acetamide]	0.5 µg/mL (≈ 1.25 µM)	
O=C(NC[C@H]1CN(c2ccc(C3C=CS(=O)(=O)CC3)c(F)c2)C(=O)O1)C(F)F (stereo partly drawn) [Example 9, N-[[(5S)-3-[4-(3,4-dihydro-1,1-dioxido-2H-thiopyran-4-yl)-3-fluorophenyl]-2-oxo-5-oxazolidinyl]methyl]-2,2-difluoroacetamide]	0.5 µg/mL (≈ 1.2 µM)	
O=C1O[C@@H](CNC(=S)C(F)F)CN1c1ccc(C2C=CS(=O)(=O)CC2)c(F)c1 (stereo partly drawn) [Example 10, N-[[(5S)-3-[4-(3,4-dihydro-1,1-dioxido-2H-thiopyran-4-yl)-3-fluorophenyl]-2-oxo-5-oxazolidinyl]methyl]-2,2-difluoroethanethioamide]	0.25 µg/mL (≈ 0.575 µM)	
O=C(NC[C@H]1CN(c2ccc(C3C=CS(=O)(=O)CC3)c(F)c2)C(=O)O1)C(Cl)Cl (stereo partly drawn) [Example 11, 2,2-dichloro-N-[[(5S)-3-[4-(3,4-dihydro-1,1-dioxido-2H-thiopyran-4-yl)-3-fluorophenyl]-2-oxo-5-oxazolidinyl]methyl]acetamide]	0.5 µg/mL (≈ 1.11 µM)	148 to 150 °C
CC(=O)NC[C@H]1CN(c2ccc(C3C=CS(=O)(=O)CC3)cc2)C(=O)O1 (stereo partly drawn) [Example 14, N-[[(5S)-3-[4-(3,4-dihydro-1,1-dioxido-2H-thiopyran-4-yl)phenyl]-2-oxo-5-oxazolidinyl]methyl]acetamide]	1 µg/mL (≈ 2.74 µM)	187 to 189 °C
O=C(NC[C@H]1CN(c2ccc(C3C=CS(=O)(=O)CC3)cc2)C(=O)O1)C(F)F (stereo partly drawn) [Example 15, N-[[(5S)-3-[4-(3,4-dihydro-1,1-dioxido-2H-thiopyran-4-yl)phenyl]-2-oxo-5-oxazolidinyl]methyl]-2,2-difluoroacetamide]	0.5 µg/mL (≈ 1.25 µM)	135 to 136 °C
O=C(NC[C@H]1CN(c2ccc(C3C=CS(=O)(=O)CC3)cc2)C(=O)O1)C(Cl)Cl (stereo partly drawn) [Example 16, 2,2-dichloro-N-[[(5S)-3-[4-(3,4-dihydro-1,1-dioxido-2H-thiopyran-4-yl)phenyl]-2-oxo-5-oxazolidinyl]methyl]acetamide]	0.25 µg/mL (≈ 0.577 µM)	159 to 161 °C
O=C1O[C@@H](CNC(=S)C(F)F)CN1c1ccc(C2C=CS(=O)(=O)CC2)cc1 (stereo partly drawn) [Example 17, [[(5S)-3-[4-(3,4-dihydro-1,1-dioxido-2H-thiopyran-4-yl)phenyl]-2-oxo-5-oxazolidinyl]methyl]-2,2-difluoroethanethioamide]	0.25 µg/mL (≈ 0.6 µM)	139 to 140 °C
CCC(=O)NC[C@H]1CN(c2ccc(C3C=CS(=O)(=O)CC3)cc2)C(=O)O1 (stereo partly drawn) [Example 18, N-[[(5S)-3-[4-(3,4-dihydro-1,1-dioxido-2H-thiopyran-4-yl)phenyl]-2-oxo-5-oxazolidinyl]methyl]propionamide]	1 µg/mL (≈ 2.64 µM)	144 to 147 °C
COC(=O)NC[C@H]1CN(c2ccc(C3C=CS(=O)(=O)CC3)cc2)C(=O)O1 (stereo partly drawn) [Example 19, (S)-[[3-[4-(3,4-dihydro-1,1-dioxido-2H-thiopyran-4-yl)phenyl]-2-oxo-5-oxazolidinyl]methyl]carbamic acid, methyl ester]	2 µg/mL (≈ 5.26 µM)	196 to 197 °C
CC(=O)NC[C@H]1CN(c2cc(F)c(C3C=CS(=O)(=O)CC3)c(F)c2)C(=O)O1 (stereo partly drawn) [Example 20, N-[[(5S)-3-[4-(3,4-dihydro-1,1-dioxido-2H-thiopyran-4-yl)-3,5-difluorophenyl]-2-oxo-5-oxazolidinyl]methyl]acetamide]	1 µg/mL (≈ 2.5 µM)	
O=C1O[C@@H](CNC(=S)C(F)F)CN1c1ccc(N2C=CS(=O)(=O)CC2)c(F)c1 [Example 21, N-[[(5S)-3-[4-(2,3-dihydro-1,1-dioxido-4H-1,4-thiazin-4-yl)-3-fluorophenyl]-2-oxo-5-oxazolidinyl]methyl]-2,2-difluoroethanethioamide]	0.25 µg/mL (≈ 0.574 µM)	
O=C(NC[C@H]1CN(c2ccc(N3C=CS(=O)(=O)CC3)c(F)c2)C(=O)O1)C(Cl)Cl [Example 22, 2,2-dichloro-N-[[(5S)-3-[4-(2,3-dihydro-1,1-dioxido-4H-1,4-thiazin-4-yl)-3-fluorophenyl]-2-oxo-5-oxazolidinyl]methyl]acetamide]	0.25 µg/mL (≈ 0.553 µM)	
O=C(NC[C@H]1CN(c2ccc(N3C=CS(=O)(=O)CC3)c(F)c2)C(=O)O1)C(F)F [Example 23, N-[[(5S)-3-[4-(2,3-dihydro-1,1-dioxido-4H-1,4-thiazin-4-yl)-3-fluorophenyl]-2-oxo-5-oxazolidinyl]methyl]-2,2-difluoroacetamide]	0.5 µg/mL (≈ 1.19 µM)	
O=C1O[C@@H](CNC(=S)C(F)F)CN1c1ccc(N2C=CS(=O)(=O)CC2)cc1 [Example 24, N-[[(5S)-3-[4-(2,3-dihydro-1,1-dioxido-4H-1,4-thiazin-4-yl)phenyl]-2-oxo-5-oxazolidinyl]methyl]-2,2-difluoroethanethioamide]	0.5 µg/mL (≈ 1.2 µM)	
O=C(NC[C@H]1CN(c2ccc(N3C=CS(=O)(=O)CC3)cc2)C(=O)O1)C(Cl)Cl [Example 25, 2,2-dichloro-N-[[(5S)-3-[4-(2,3-dihydro-1,1-dioxido-4H-1,4-thiazin-4-yl)phenyl]-2-oxo-5-oxazolidinyl]methyl]acetamide]	1 µg/mL (≈ 2.3 µM)	
O=C(NC[C@H]1CN(c2ccc(N3C=CS(=O)(=O)CC3)cc2)C(=O)O1)C(F)F [Example 26, N-[[(5S)-3-[4-(2,3-dihydro-1,1-dioxido-4H-1,4-thiazin-4-yl)phenyl]-2-oxo-5-oxazolidinyl]methyl]-2,2-difluoroacetamide]	1 µg/mL (≈ 2.49 µM)	
O=C1O[C@@H](CNC(=S)C(F)F)CN1c1cc(F)c(N2C=CS(=O)(=O)CC2)c(F)c1 [Example 27, N-[[(5S)-3-[4-(2,3-dihydro-1,1-dioxido-4H-1,4-thiazin-4-yl)-3,5-difluorophenyl]-2-oxo-5-oxazolidinyl]methyl]-2,2-difluoroethanethioamide]	0.25 µg/mL (≈ 0.551 µM)	
O=C(NC[C@H]1CN(c2cc(F)c(N3C=CS(=O)(=O)CC3)c(F)c2)C(=O)O1)C(Cl)Cl [Example 28, 2,2-dichloro-N-[[(5S)-3-[4-(2,3-dihydro-1,1-dioxido-4H-1,4-thiazin-4-yl)-3,5-difluorophenyl]-2-oxo-5-oxazolidinyl]methyl]acetamide]	0.5 µg/mL (≈ 1.06 µM)	
O=C(NC[C@H]1CN(c2cc(F)c(N3C=CS(=O)(=O)CC3)c(F)c2)C(=O)O1)C(F)F [Example 29, N-[[(5S)-3-[4-(2,3-dihydro-1,1-dioxido-4H-1,4-thiazin-4-yl)-3,5-difluorophenyl]-2-oxo-5-oxazolidinyl]methyl]-2,2-difluoroacetamide]	0.5 µg/mL (≈ 1.14 µM)	
O=C(NC[C@H]1CN(c2cc(F)c(C3C=CS(=O)(=O)CC3)c(F)c2)C(=O)O1)C(F)F (stereo partly drawn) [Example 30, N-({(5S)-3-[4-(1,1-dioxido-3,4-dihydro-2H-thiopyran-4-yl)-3,5-difluorophenyl]-2-oxo-1,3-oxazolidin-5-yl}methyl)-2,2-difluoroacetamide]	1 µg/mL (≈ 2.29 µM)	
O=C(NC[C@H]1CN(c2cc(F)c(C3C=CS(=O)(=O)CC3)c(F)c2)C(=O)O1)C(Cl)Cl (stereo partly drawn) [Example 31, 2,2-dichloro-N-({(5S)-3-[4-(1,1-dioxido-3,4-dihydro-2H-thiopyran-4-yl)-3,5-difluorophenyl]-2-oxo-1,3-oxazolidin-5-yl}methyl)acetamide]	0.5 µg/mL (≈ 1.07 µM)	
O=C1O[C@@H](CNC(=S)C(F)F)CN1c1cc(F)c(C2C=CS(=O)(=O)CC2)c(F)c1 (stereo partly drawn) [Example 32, N-({(5S)-3-[4-(1,1-dioxido-3,4-dihydro-2H-thiopyran-4-yl)-3,5-difluorophenyl]-2-oxo-1,3-oxazolidin-5-yl}methyl)-2,2-difluoroethanethioamide]	0.5 µg/mL (≈ 1.11 µM)	
